# Results from ChEMBL document CHEMBL1667806, “Synthesis and evaluation of anti-tubercular activity of new dithiocarbamate sugar derivatives” (2011).
# Key:
# Format in all cases: functional
# [1] = system: Mycobacterium tuberculosis; experiment: Antimycobacterial activity against INH, RFP, SM, EB-resistant Mycobacterium tuberculosis isolate 13
# [2] = system: Mycobacterium tuberculosis; experiment: Antimycobacterial activity against RFP, EB-resistant Mycobacterium tuberculosis isolate 3
# [3] = system: Mycobacterium tuberculosis; experiment: Antimycobacterial activity against INH, RFP, SM, EB, PAS-resistant Mycobacterium tuberculosis isolate 18
# [4] = system: Mycobacterium tuberculosis; experiment: Antimycobacterial activity against INH, RFP, KM, LVFX, SPFX, CPFX-resistant Mycobacterium tuberculosis isolate 9
# [5] = system: Mycobacterium tuberculosis; experiment: Antimycobacterial activity against INH, RFP, EB, LVFX, CPFX-resistant Mycobacterium tuberculosis isolate 4
# [6] = system: Mycobacterium tuberculosis; experiment: Antimycobacterial activity against INH, RFP, EB-resistant Mycobacterium tuberculosis isolate 14
# [7] = system: Mycobacterium tuberculosis; experiment: Antimycobacterial activity against INH, RFP, EB, LVFX, SPFX, CPFX-resistant Mycobacterium tuberculosis isolate 2
# [8] = system: Mycobacterium tuberculosis; experiment: Antimycobacterial activity against RFP-resistant Mycobacterium tuberculosis isolate 7
# [9] = system: Mycobacterium tuberculosis; experiment: Antimycobacterial activity against INH, RFP-resistant Mycobacterium tuberculosis isolate 17
# [10] = system: Mycobacterium tuberculosis; experiment: Antimycobacterial activity against INH, RFP, EB, LVFX, SPFX, CPFX-resistant Mycobacterium tuberculosis isolate 1
# [11] = system: Mycobacterium tuberculosis; experiment: Antimycobacterial activity against RFP-resistant Mycobacterium tuberculosis isolate 8
# [12] = system: Mycobacterium tuberculosis; experiment: Antimycobacterial activity against INH, RFP, SM, EB, KM, PAS, EVM, LVFX-resistant Mycobacterium tuberculosis isolate 16
# [13] = system: Mycobacterium tuberculosis; experiment: Antimycobacterial activity against INH, RFP, EB, KM, LVFX, SPFX, CPFX-resistant Mycobacterium tuberculosis isolate 11
# [14] = system: Mycobacterium tuberculosis; experiment: Antimycobacterial activity against INH, RFP, EB, LVFX, SPFX, CPFX-resistant Mycobacterium tuberculosis isolate 15
# [15] = system: Mycobacterium tuberculosis; experiment: Antimycobacterial activity against INH, RFP, SM, EB, KM, LVFX, SPFX, CPFX-resistant Mycobacterium tuberculosis isolate 6
# [16] = system: Mycobacterium tuberculosis; experiment: Antimycobacterial activity against INH, RFP, ETH-resistant Mycobacterium tuberculosis isolate 20
# [17] = system: Mycobacterium tuberculosis; experiment: Antimycobacterial activity against INH, RFP, EB, KM, LVFX, SPFX, CPFX-resistant Mycobacterium tuberculosis isolate 5
# [18] = system: Mycobacterium tuberculosis; experiment: Antimycobacterial activity against RFP-resistant Mycobacterium tuberculosis isolate 10
# [19] = system: Mycobacterium tuberculosis; experiment: Antimycobacterial activity against INH, RFP, EB-resistant Mycobacterium tuberculosis isolate 12
# [20] = system: Mycobacterium tuberculosis; experiment: Antimycobacterial activity against INH, RFP, SM, EB, PAS, LVFX-resistant Mycobacterium tuberculosis isolate 19
SMILES,MIC [1],MIC [2],MIC [3],MIC [4],MIC [5],MIC [6],MIC [7],MIC [8],MIC [9],MIC [10],MIC [11],MIC [12],MIC [13],MIC [14],MIC [15],MIC [16],MIC [17],MIC [18],MIC [19],MIC [20]
"N.S=C(S)N1CCCC1 [PYRROLIDINE DITHIOCARBAMIC ACID, AMMONIUM SALT]",0.2 µg/mL,0.2 µg/mL,0.2 µg/mL,0.2 µg/mL,0.4 µg/mL,0.2 µg/mL,0.2 µg/mL,0.2 µg/mL,0.2 µg/mL,0.2 µg/mL,0.2 µg/mL,0.2 µg/mL,0.2 µg/mL,0.2 µg/mL,0.2 µg/mL,0.2 µg/mL,0.2 µg/mL,0.4 µg/mL,0.2 µg/mL,0.4 µg/mL
CC(=O)N[C@@H]1[C@@H](O)[C@H](O)[C@@H](CO)O[C@H]1SC(=S)N1CCCC1,6.25 µg/mL,6.25 µg/mL,6.25 µg/mL,6.25 µg/mL,12.5 µg/mL,6.25 µg/mL,6.25 µg/mL,6.25 µg/mL,6.25 µg/mL,6.25 µg/mL,6.25 µg/mL,6.25 µg/mL,12.5 µg/mL,6.25 µg/mL,6.25 µg/mL,6.25 µg/mL,6.25 µg/mL,12.5 µg/mL,6.25 µg/mL,12.5 µg/mL
